Legend:
Format in all cases: in vivo
[1] = system: Setaria viridis (Foxtail, green); test: Postemergence herbicidal activity in cereal crops (Example 14); conditions: wheat cropping systems, postemergence spray, 17.5 g ae/ha, 21 DAA
[2] = system: Lolium multiflorum (Ryegrass, Italian); test: as above; conditions: wheat cropping systems, postemergence spray, 17.5 g ae/ha, 21 DAA
[3] = system: Avena fatua (Oat, wild); test: as above; conditions: wheat cropping systems, postemergence spray, 35 g ae/ha, 21 DAA
[4] = system: Viola tricolor (Pansy, wild); test: General postemergence herbicidal activity (Example 13); conditions: post-emergent spray, 70 g ai/ha, 14 DAA
Method: (§1) Seeds or nutlets of the desired test plant species were planted in Sun Gro Metro-Mix® 360 planting mixture, which typically has a pH of 6.0 to 6.8 and an organic matter content of about 30 percent, in plastic pots with a surface area of 84.6 square centimeters (cm^2). When required to ensure good germination and healthy plants, a fungicide treatment and/or other chemical or physical treatment was applied. The plants were grown for 7-31 days (d) in a greenhouse with an approximate 15 hour (h) photoperiod which was maintained at about 23-29° C. during the day and 22-28° C. during the night. Nutrients and water were added on a regular basis and supplemental lighting was provided with overhead metal halide 1000-Watt lamps as necessary. The plants were employed for testing when they reached the first or second true leaf stage.
(§2) Treatments consisted of esters of compounds 33 and 39 and F and G. Compound F is methyl 6-amino-2-(4-chloro-2-fluoro-3-methoxyphenyl)-5-methoxypyrimidine-4-carboxylate; and compound G is methyl 4-amino-3-chloro-6-(4-chloro-2-fluoro-3-methoxyphenyl)picolinate. A weighed amount, determined by the highest rate to be tested, of each test compound was placed in a 25 mL glass vial and was dissolved in 4 mL of a 97:3 v/v (volume/volume) mixture of acetone and dimethyl sulfoxide (DMSO) to obtain concentrated stock solutions. […] The concentrated stock solutions obtained were diluted with 20 mL of an aqueous mixture containing acetone, water, isopropyl alcohol, DMSO, Atplus 411F crop oil concentrate, and Triton® X-155 surfactant in a 48.5:39:10:1.5:1.0:0.02 v/v ratio to obtain spray solutions containing the highest application rates. Additional application rates were obtained by serial dilution of 12 mL of the high rate solution into a solution containing 2 mL of a 97:3 v/v (volume/volume) mixture of acetone and DMSO and 10 mL of an aqueous mixture containing acetone, water, isopropyl alcohol, DMSO, Atplus 411F crop oil concentrate, and Triton® X-155 surfactant in a 48.5:39:10:1.5:1.0:0.02 v/v ratio to obtain ½×, ¼×, ⅛× and 1/16× rates of the high rate. Compound requirements are based upon a 12 mL application volume at a rate of 187 liters per hectare (L/ha). Formulated compounds were applied to the plant material with an overhead Mandel track sprayer equipped with 8002E nozzles calibrated to deliver 187 L/ha over an application area of 0.503 square meters (m^2) at a spray height of 18 inches (43 cm) above the average plant canopy height. Control plants were sprayed in the same manner with the solvent blank.
(§3) The treated plants and control plants were placed in a greenhouse as described above and watered by sub-irrigation to prevent wash-off of the test compounds. After 14 d, the condition of the test plants as compared with that of the untreated plants was determined visually and scored on a scale of 0 to 100 percent where 0 corresponds to no injury and 100 corresponds to complete kill.

[5] = system: Stellaria media (Chickweed, common); test: as above; conditions: post-emergent spray, 70 g ai/ha, 14 DAA
Method: as §1, §2, §3

[6] = system: Triticum aestivum (Wheat, spring); test: as above; conditions: post-emergent spray, 70 g ai/ha, 14 DAA; crop (spring wheat)
Method: as §1, §2, §3

[7] = system: Oryza sativa (Rice); test: as above; conditions: post-emergent spray, 70 g ai/ha, 14 DAA; crop (rice)
Method: as §1, §2, §3

Question: Which “Visual Injury (%) SETVI” value [1] does the source give for COC(=O)c1nc(-c2ccc(Cl)c(OC)c2F)nc(N)c1OC [Compound F, methyl 6-amino-2-(4-chloro-2-fluoro-3-methoxyphenyl)-5-methoxypyrimidine-4-carboxylate, reference compound] here?
Answer: 85%

Question: What about the “Visual Injury (%) LOLMU” value [2] of the same compound?
Answer: 60%

Question: What about the “Visual Injury (%) AVEFA” value [3] of the same compound?
Answer: 20%

Question: And the “Visual Injury (%) VIOTR” value [4]?
Answer: 80%

Question: What about the “Visual Injury (%) STEME” value [5] of the same compound?
Answer: 90%

Question: What about the “Visual Injury (%) TRZAS” value [6] of the same compound?
Answer: 70%

Question: And the “Visual Injury (%) ORYSA” value [7]?
Answer: 75%

— patent US9169217B2, “Arylalkyl esters of 4-amino-6-(substituted phenyl)-picolinates and 6-amino-2-(substituted phenyl)-pyrimidinecarboxylates and their use as selective herbicides for crops” (Dow AgroSciences LLC, priority 2011, dated 2015)
